Results on eight compounds are retold here after patent US4165371A, “1,2,3,4,5,6-Hexahydro-1,6-methano-3-benzazocines” (priority 1976, dated 1979).

The format of data set [1] is in vivo. The conditions noted are these: mouse hot plate, intravenous; for ED50: range in parentheses. The method, then:
(c) The presence of certain N-substituents would confer antagonist activity on members of this new ring system, Tests for analgesic activity were conducted using intravenous administration in the reliable Eddy mouse hot plate assay described in J. Pharmacol. Exp. Ther. […] (1953). The results are set forth in Table 1, together with the activities of morphine and codeine reported as evaluation standards.

The test system of data set [2] is morphine dependent monkeys. Kind of data set: Physical dependence liability testing, overall evaluation. In kind it is in vivo, monkey. The conditions noted are these: for Estimated Physical Dependence Capacity: at doses tested. The method, then: (§1) Physical Dependence Liability testing was conducted on Compounds A, B, C and F of Table 1. For determining Single Dose Suppression (SDS) data monkeys, physically dependent on 3.0 mg/kg of morphine sulfte q6H, were withdrawn until abstinence signs of intermediate severity were present (12-14 hours). The coded drug was injected at this time by persons other than the observer. The monkeys were graded just prior to injection and at intervals of 1/2, 1, 2, 3, 4, 5 and 6 hours after injection. Grades were based on withdrawal intensity or opiate-like depression and side effects, if present. The results are shown in Tables 2 through 5 together with evaluations thereof by Dr. Henry H. Swain at the University of Michigan. Dosages are in mg/kg.

The subject of data set [3] is monkeys, physically dependent on morphine. Kind of data set: Physical dependence liability: Single Dose Suppression (SDS) in withdrawn morphine-dependent monkeys. In kind it is in vivo, monkey. The conditions noted are these: 2 monkeys. Here is the method:
as §1

The test system of data set [4] is Non-withdrawn, morphine dependent monkeys. As to the kind of experiment: Attempted precipitation of abstinence in non-withdrawn, morphine-dependent monkeys (NW). The class given is in vivo, monkey. Conditions: for Effects, precipitation of abstinence signs (NW): 2 monkeys.
The subject of data set [5] is Normal monkeys (not dependent on morphine). Kind of data set: Normal monkeys (not dependent on morphine): attempt to elicit the narcotic syndrome. In kind it is in vivo, monkey.

On to `C=CCN1CCC2CC(C1)c1ccccc12` (centres unmarked) [F], for which the duration in data set [1] stood at 119 min. This compound also yielded an onset in data set [1] of 3.2 min. Besides, in data set [1], the peak was 16.3 min. Besides, the ED50 in data set [1] is listed as 19.4 (13.1-28.7) mg/kg. Also, the “Estimated Physical Dependence Capacity” value in data set [2] is recorded as “None”. In addition, the “Effects, Single Dose Suppression” value in data set [3] (1.0 mg/kg) is listed as “No apparent effect”; in data set [3] (2.0 mg/kg), “No apparent effect”; in data set [3] (4.0 mg/kg), “No apparent effect”; in data set [3] (8.0 mg/kg), “No apparent effect”; in data set [3] (16.0 mg/kg) it was “No obvious effect”.
For the compound `COc1ccc2c3c1O[C@H]1[C@@H](O)C=C[C@H]4[C@@H](C2)N(C)CC[C@@]341` [codeine, reference compound], the ED50 in data set [1] is reported as 7.5 (6.8-8.3) mg/kg.
For the compound `CN1CCC2CC(C1)c1ccccc12` (centres unmarked) [B], in data set [1], the duration stood at 104 min, the onset was 3.2 min, the peak was found to be 20.3 min and the ED50 is recorded as 4.2 (2.6-6.7) mg/kg. Further, in data set [2], the “Estimated Physical Dependence Capacity” value is given as “Little or none at doses tested”. The “Effects, Single Dose Suppression” value in data set [3] (2.0 mg/kg) is on record as “No apparent effect”. Besides, in data set [3] (4.0 mg/kg), the “Effects, Single Dose Suppression” value was “No obvious effect”. Further, in data set [4], the morphine antagonism entry is “not morphine antagonists” and the “precipitation of the morphine abstinence syndrome” value is on record as “no such result was observed”. Also, in data set [4] (4.0 mg/kg), the “Effects, precipitation of abstinence signs (NW)” value is given as “No obvious effect”. Further, the “Effects, precipitation of abstinence signs (NW)” value in data set [4] (8.0 mg/kg) is “No obvious effect”. Moreover, the narcotic signs result in data set [5] is listed as “no obvious narcotic signs were observed”.
Take `c1ccc2c(c1)C1CCN(CC3CC3)CC2C1` (centres unmarked) [C]: the “Estimated Physical Dependence Capacity” value in data set [2] was “None”. For the same compound, the “Remarks: direct effects / convulsions” value in data set [2] (doses tested) is “The drug causes convulsions”. In addition, the “Dose estimated to be equivalent to 3.0 mg/kg of morphine sulfate” value in data set [2] (evaluation in words) is “Not morphine-like”. In addition, the “Effects, Single Dose Suppression” value in data set [3] (5.0 mg/kg) and in data set [3] (10.0 mg/kg) was “No obvious effect” each time.
With `CCCN1CCC2CC(C1)c1ccccc12` (centres unmarked), in data set [1], the duration worked out at 120 min, the onset is 3.6 min, the peak amounted to 32.1 min and the ED50 was 16.2 (11.7-22.4) mg/kg.
`CN1CC[C@]23c4c5ccc(O)c4O[C@H]2[C@@H](O)C=C[C@H]3[C@H]1C5` [morphine, reference compound]: in data set [1], the ED50 was 1.2 (0.9-1.3) mg/kg.
As to `c1ccc(CCN2CCC3CC(C2)c2ccccc23)cc1` (centres unmarked), in data set [1], the duration is 123 min, the onset was 4.7 min, the peak worked out at 25.6 min and the ED50 is 8.8 (6.2-12.5) mg/kg.
Consider `c1ccc2c(c1)C1CCNCC2C1` (centres unmarked) [A], for which, in data set [1], the duration was 97.5 min, the onset came to 3.3 min, the peak is 18.0 min and the ED50 is given as 4.9 (3.6-6.5) mg/kg. Moreover, the “Estimated Physical Dependence Capacity” value in data set [2] is recorded as “Not morphine-like”. Also, the “Effects, Single Dose Suppression” value in data set [3] (2.0 mg/kg) is recorded as “No apparent effect”. For the same compound, in data set [4], the morphine antagonism result is “not morphine antagonists” and the “precipitation of the morphine abstinence syndrome” value was “no such result was observed”. Besides, the narcotic signs result in data set [5] was “no obvious narcotic signs were observed”. For the same compound, the “Narcotic signs in normals” value in data set [5] (8.0 mg/kg, 2 monkeys) was “No obvious narcotic signs”.
